Laboratory results: patent publication US20060252798A1, “Metal ion chelators and therapeutic use thereof” (priority 2003, published 2006)
Values joined by “and” are separate entries in the source; they are usually repeats but may differ in a detail not shown here. Equal values may be shown once.

Legend:
[1] = system: iron regulatory proteins (IRPs); assay: IRP-RNA-binding activity, gel-retardation assay, SK-N-MC cells; assay type: cell-based, human; details: DFO 100 μM, FAC 100 μg/ml, other chelators 25 μM, 20 h (FIG. 8)
Method: The IRP-RNA-binding activity was then assessed by the gel-retardation assay. Aliquots of cell lysate containing 2 μg of protein were incubated with 0.1 ng (approximately 1×10^5 cpm) of ^32P-labelled riboprobe for 30 min at room temperature. Using this protocol the level of RNA added was saturating. Unprotected probe was degraded by incubation with 1 U of RNAse T1 for 10 min at room temperature. Heparin (5 mg/ml) was then added for another 10 min to exclude non-specific binding. The IRE-protein complexes were analyzed on 6% non-denaturing polyacrylamide gels. In parallel experiments, samples were treated with ferricyanide (FeCN, 5 mM) and 0.5% β-mercaptoethanol (β-ME), prior to addition of the IRE probe. This procedure results in the conversion of IRP1, whether spontaneously active or not, into an active IRE-binding form.^22

[2] = system: SK-N-MC neuroepithelioma cells; assay: 3H-thymidine incorporation by SK-N-MC cells; assay type: cell-based, human; details: 20 h incubation then 2 h label; Mean ± SD, 4 experiments
Method: After a 20 h incubation of the SK-N-MC cells with a selection of analogues, ^3H-thymidine, ^3H-leucine, or ^3H-uridine (1 μCi/ml) was added for 2 h at 37° C. The cells were detached from the 96 well plate using 1 mM EDTA in Ca(II)/Mg(II)-free PBS and collected and washed using a cell harvester (Tomtec Harvester 96, Linbrook, Queensland, Australia). Radioactivity was measured on a P-scintillation counter (LKB Wallace, Turku, Finland).

[3] = system: holo-cytochrome c (h-cytc); assay: Release of holo-cytochrome c from mitochondria into cytosol of M109 cells; assay type: cell-based, mouse; details: 1 μM, 2 h exposure (FIG. 15A)
Method: Due to the importance of h-cytc release from the mitochondrion on apoptosis induction,^8 further studies investigated the effect of Dp44mT on this process (FIG. 15A). Preparation of cytosolic and mitochondrial fractions and western blotting were carried out using standard techniques.^27 There was very little h-cytc expression in the cytosolic fractions of control M109 cells (i.e., at 0 h), with the greatest amount of h-cytc being found in the mitochondrion at this time (FIG. 15A). […] The release of h-cytc into the cytosol plateaued after a 4 h incubation with Dp44mT and then decreased to that found in control cells after 24 and 48 h. This increase in cytosolic h-cytc correlated with the loss from the mitochondrion (FIG. 15A). The near complete disappearance of h-cytc from the cytosol at 24 and 48 h may be due to its release from cells or its degradation^28 (FIG. 15A).

[4] = system: M109 lung carcinoma; assay: In situ TUNEL assay of tumour samples from treated mice; assay type: in vivo, mouse; details: 0.4 mg/kg, compared to vehicle-treated controls (FIG. 12B)
[5] = system: caspase-8; assay: Caspase-8 activity in M109 cells (BD Apolert Caspase Assay Plate); assay type: cell-based, mouse; details: 1 μM
Method: (§1) Cultured M109 cells were treated with or without Dp44mT (1 μM) for 0-48 h at 37° C. Cells were lysed^27 and caspase activities were determined using the BD Apolert™ Caspase Assay Plate (BD Biosciences, San Diego, Calif., USA). Cell-permeable pan-caspase-3, -8, and -9 inhibitors (BD Biosciences) were included as inhibitory controls.

[6] = system: active caspase-3; assay: Protein level of active caspase-3 in M109 cells (western blotting); assay type: cell-based, mouse; details: 1 μM
Method: FIG. 14. Effect of Dp44mT (1 μM) on the (A,B) protein levels of active caspase-3, -8 and -9, and (C,D) the activity of caspase-3, -8 and -9 in cultured M109 cells in the absence (C) and presence (D) of cell-permeable caspase inhibitors. (A) Caspase-3, -8, and -9 levels after Dp44mT treatment at indicated times as detected by western blotting (upper panel). The anti-β-actin antibody was used to ensure equal protein loading (lower panel). (B) Densitometric analysis of the expression of caspase-3, -8, and -9 as a function of time normalized to β-actin (C) Caspase activity induced by Dp44mT (1 μM) at 0-48 h was expressed as a percentage of the 0 h time value. (D) Cell-permeable inhibitors of caspase-3, -8 or -9 at 1 μM prevented activation of these enzymes when incubated with Dp44mT (1 μM) for 48 h. Results are mean±SEM of three separate experiments.
Rabbit anti-active caspase-3 antibody, rabbit anti-active caspase-8 antibody and Annexin V fluorescein isothiocyanate (FITC) were from BD PharMingen (San Diego, Calif., USA). Anti-h-cytc MoAb was from R&D Systems Minneapolis, Minn., USA). Rabbit anti-active caspase-9 antibody, mouse anti-Bcl-2 and mouse anti-Bax antibodies were obtained from Santa Cruz (Santa Cruz, Calif., USA). Mouse anti-mouse β-actin antibody, horseradish peroxidase-conjugated antirabbit, and anti-mouse IgG were from Sigma Chemical Co. (St. Louis, Mo., USA).
To determine the role of caspase activation in Dp44mT-induced apoptosis in M109 cells, protein levels of active caspase-3, -8 and -9 (FIG. 14A,B) and their enzymatic activity (FIG. 14C,D) were examined.

[7] = system: M109 cells; assay: Apoptosis assay by flow cytometry (Annexin V-FITC / PI), cultured M109 cells; assay type: cell-based, mouse
Method: Apoptotic cells were detected by a flow cytometer (FACSCalibur, Becton Dickinson, Calif., USA) using fluorescein isothiocyanate (FITC) labelled Annexin V binding to translocated plasma membrane phosphatidylserine (PS).^25 Propidium iodide (PI) was added to identify loss of cell membrane integrity, which is indicative of necrotic cells.
There was a dose-dependent increase in the percentage of apoptotic and dead cells after Dp44mT treatment (FIG. 13A). Exposure of cells to 1 μM Dp44mT caused a significant (p<0.05) increase of apoptotic and dead cells. This increase peaked at a Dp44mT concentration of 100 μM resulting in a population consisting of 40±7% apoptotic cells and 27±3% dead cells (FIG. 13A).

[8] = system: caspase-9; assay: Caspase-9 activity in M109 cells (BD Apolert Caspase Assay Plate); assay type: cell-based, mouse; details: 1 μM
Method: as §1

[9] = system: M109 lung carcinoma; assay: Inhibition of M109 lung carcinoma growth in vivo; set-up: species or system mouse; details: 0.4 mg/kg iv twice daily for 5 days, day 12
Method: Inhibition of M109 Lung Cancer Cell Growth by Iron Chelators In Vivo Female CD2F1 mice aged 8-10 weeks old were sc implanted with 1×10^5 M109 cells. The tumour cells were passaged in CD2F1 mice by preparing a brei from the tumour and injecting it sc.^20 Dp44mT was dissolved in 30% (v/v) propylene glycol in saline and injected iv 4 days after tumour engraftment, twice daily for 5 days followed by a “rest period” of 2 days when the animal was not injected. On the twelfth day after tumour implantation, mice were sacrificed using methoxyfluorane and cardiac puncture performed. Blood counts and erythrocyte indices were measured using a Sysmex Blood Counter (Prince of Wales Hospital, Sydney, Australia). Mouse body weight changes during the treatment period were recorded. The tumours were weighed and fixed for histological examination. The experimental groups consisted of eight mice for the control and each treatment (Table 5).
As a relevant positive control, animals were administered Triapine® at its MTD (6 mg/kg). The tumour weight was measured on the twelfth day after the tumour cell implantation.

## CC(=O)N(O)CCCCCNC(=O)CCC(=O)N(O)CCCCCNC(=O)CCC(=O)N(O)CCCCCN [DFO, desferrioxamine]
[1]
  IRP-RNA binding activity: increase
[2]
  3H-Thymidine Incorporation: 29 ± 13 % Control and 29 + 13 % Control

## CN(C)C(=S)NN=C(c1ccccn1)c1ccccn1 [Dp44mT, di-2-pyridylketone 4,4-dimethyl-3-thiosemicarbazone]
[3]
  h-cytc release from the mitochondrion: h-cytc was found in the cytosolic fraction
[4]
  apoptotic cell death in tumour samples: increased apoptotic cell death
[5]; 12 h
  caspase-8 activity: 299 % of the control
[5]; after 24 h
  caspase-8 activity (plateau): 400-600 % of the control
[6]; 2 h
  caspase-3 protein level: 168 % of the control
[6]; 6 h
  caspase-3 protein level: 400 % of the control
[6]; 12 h
  caspase-3 protein level: 380 % of the control
[6]; 24 h
  caspase-3 protein level: about 4 fold that of control cells
[6]; 48 h
  caspase-3 protein level: 5.5 fold that of control cells
[7]; 1 μM, 12 h
  apoptotic cells: 12±2%
[7]; 100 μM, 24 h
  apoptotic cells: 40±7%
  dead cells: 27±3%
[7]; 250 μM, 24 h
  apoptotic cell numbers: 20±2%
  dead cell population: 42±6%
[8]; 12 h
  caspase-9 activity: 354 % of the control
[8]; after 24 h
  caspase-9 activity (plateau): 400-600 % of the control
[9]
  tumour weight: 47 % of control
